In PubChem BioAssay AID1963837 (Molecular Pharmacology Branch, DTP, NCI, 2024):

System: 843126-344-R-J1-PDC complex spheroid viability
Experiment: Anticancer human tumor 843126-344-R-J1-PDC patient-derived melanoma cell line growth inhibition [POLQ]
Conditions: for IC50: curve of first compound; for viability, T/C: stronger effect = lower value
How it was run: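 Three-cell-type spheroids modelling solid tumor plus stroma served as the readout system; POL inhibitors were tested individually and in combination, concentration ranges set by clinical Cmax where known.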

[1] = second compound 0.0316 µM, first compound 0.00316 µM
[2] = second compound 0.0316 µM, first compound 0.01 µM
[3] = second compound 0.0316 µM, first compound 0.0316 µM
[4] = second compound 0.0316 µM, first compound 0.1 µM
[5] = second compound 0.1 µM, first compound 0.00316 µM
[6] = second compound 0.1 µM, first compound 0.01 µM
[7] = second compound 0.1 µM, first compound 0.0316 µM
[8] = second compound 0.1 µM, first compound 0.1 µM
[9] = second compound 0.316 µM, first compound 0.00316 µM
[10] = second compound 0.316 µM, first compound 0.01 µM
[11] = second compound 0.316 µM, first compound 0.0316 µM
[12] = second compound 0.316 µM, first compound 0.1 µM
[13] = second compound 1 µM, first compound 0.00316 µM
[14] = second compound 1 µM, first compound 0.01 µM
[15] = second compound 1 µM, first compound 0.0316 µM
[16] = second compound 1 µM, first compound 0.1 µM
[17] = second compound 3.16 µM, first compound 0.00316 µM
[18] = second compound 3.16 µM, first compound 0.01 µM
[19] = second compound 3.16 µM, first compound 0.0316 µM
[20] = second compound 3.16 µM, first compound 0.1 µM
[21] = second compound 10 µM, first compound 0.00316 µM
[22] = second compound 10 µM, first compound 0.01 µM
[23] = second compound 10 µM, first compound 0.0316 µM
[24] = second compound 10 µM, first compound 0.1 µM
[25] = second compound 0.0316 µM, first compound 0.316 µM
[26] = second compound 0.0316 µM, first compound 1 µM
[27] = second compound 0.1 µM, first compound 0.316 µM
[28] = second compound 0.1 µM, first compound 1 µM
[29] = second compound 0.316 µM, first compound 0.316 µM
[30] = second compound 0.316 µM, first compound 1 µM
[31] = second compound 1 µM, first compound 0.316 µM
[32] = second compound 1 µM, first compound 1 µM
[33] = second compound 3.16 µM, first compound 0.316 µM
[34] = second compound 3.16 µM, first compound 1 µM
[35] = second compound 10 µM, first compound 0.316 µM
[36] = second compound 10 µM, first compound 1 µM
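Throughout, for viability, T/C: spheroids exposed to drugs for seven days before readout.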

## CC[C@@]1(O)C(=O)OCc2c1cc1n(c2=O)Cc2cc3c(CN(C)C)c(O)ccc3nc2-1 + Cc1cccc(N(C)C(=O)C2C(O)CCN2c2nc(C)cc(C(F)(F)F)c2C#N)c1
Second compound 0.0316 µM
  IC50: > 100 nM
Second compound 0.1 µM
  IC50: > 100 nM
Second compound 0.316 µM
  IC50: > 100 nM
Second compound 1 µM
  IC50: > 100 nM
Second compound 3.16 µM
  IC50: > 100 nM
Second compound 10 µM
  IC50: 97.2 nM
Second compound 0.0316 µM, first compound 0.000316 µM
  viability, T/C: 98%
Second compound 0.0316 µM, first compound 0.001 µM
  viability, T/C: 105%
[1]
  viability, T/C: 89.8%
[2]
  viability, T/C: 103%
[3]
  viability, T/C: 59.9%
[4]
  viability, T/C: 52.5%
Second compound 0.1 µM, first compound 0.000316 µM
  viability, T/C: 86%
Second compound 0.1 µM, first compound 0.001 µM
  viability, T/C: 92.9%
[5]
  viability, T/C: 110%
[6]
  viability, T/C: 80.9%
[7]
  viability, T/C: 67.1%
[8]
  viability, T/C: 59.7%
Second compound 0.316 µM, first compound 0.000316 µM
  viability, T/C: 106%
Second compound 0.316 µM, first compound 0.001 µM
  viability, T/C: 102%
[9]
  viability, T/C: 93.1%
[10]
  viability, T/C: 83.9%
[11]
  viability, T/C: 70.7%
[12]
  viability, T/C: 58.5%
Second compound 1 µM, first compound 0.000316 µM
  viability, T/C: 78.1%
Second compound 1 µM, first compound 0.001 µM
  viability, T/C: 113%
[13]
  viability, T/C: 89.3%
[14]
  viability, T/C: 90.3%
[15]
  viability, T/C: 74%
[16]
  viability, T/C: 52.8%
Second compound 3.16 µM, first compound 0.000316 µM
  viability, T/C: 101%
Second compound 3.16 µM, first compound 0.001 µM
  viability, T/C: 96.1%
[17]
  viability, T/C: 108%
[18]
  viability, T/C: 105%
[19]
  viability, T/C: 70%
[20]
  viability, T/C: 52.3%
Second compound 10 µM, first compound 0.000316 µM
  viability, T/C: 84.6%
Second compound 10 µM, first compound 0.001 µM
  viability, T/C: 83.9%
[21]
  viability, T/C: 74.6%
[22]
  viability, T/C: 87.8%
[23]
  viability, T/C: 66.6%
[24]
  viability, T/C: 49.6%

## CCc1c2c(nc3ccc(O)cc13)-c1cc3c(c(=O)n1C2)COC(=O)[C@]3(O)CC + Cc1cccc(N(C)C(=O)C2C(O)CCN2c2nc(C)cc(C(F)(F)F)c2C#N)c1
Second compound 0.0316 µM
  IC50: 991 nM
Second compound 0.1 µM
  IC50: 749 nM
Second compound 0.316 µM
  IC50: 400 nM
Second compound 1 µM
  IC50: > 1000 nM
Second compound 3.16 µM
  IC50: > 1000 nM
Second compound 10 µM
  IC50: > 1000 nM
[1]
  viability, T/C: 73%
[2]
  viability, T/C: 52.8%
[3]
  viability, T/C: 66.4%
[4]
  viability, T/C: 67.3%
[25]
  viability, T/C: 54.6%
[26]
  viability, T/C: 50.5%
[5]
  viability, T/C: 72.8%
[6]
  viability, T/C: 52.8%
[7]
  viability, T/C: 60.6%
[8]
  viability, T/C: 58.8%
[27]
  viability, T/C: 60.8%
[28]
  viability, T/C: 42.8%
[9]
  viability, T/C: 70.5%
[10]
  viability, T/C: 61.6%
[11]
  viability, T/C: 58.3%
[12]
  viability, T/C: 58.6%
[29]
  viability, T/C: 53.6%
[30]
  viability, T/C: 43.6%
[13]
  viability, T/C: 66.6%
[14]
  viability, T/C: 58.5%
[15]
  viability, T/C: 55.1%
[16]
  viability, T/C: 60.9%
[31]
  viability, T/C: 59.6%
[32]
  viability, T/C: 44.6%
[17]
  viability, T/C: 67.5%
[18]
  viability, T/C: 60.9%
[19]
  viability, T/C: 50.3%
[20]
  viability, T/C: 67.7%
[33]
  viability, T/C: 66.1%
[34]
  viability, T/C: 45.7%
[21]
  viability, T/C: 64.8%
[22]
  viability, T/C: 68.3%
[23]
  viability, T/C: 67%
[24]
  viability, T/C: 66.2%
[35]
  viability, T/C: 58.6%
[36]
  viability, T/C: 47.8%

## COc1cc(C2c3cc4c(cc3C(OC3OC5COC(C)OC5C(O)C3O)C3COC(=O)C23)OCO4)cc(OC)c1O (stereo unspecified) + Cc1cccc(N(C)C(=O)C2C(O)CCN2c2nc(C)cc(C(F)(F)F)c2C#N)c1
Second compound 0.0316 µM
  IC50: 8760 nM
Second compound 0.1 µM
  IC50: 8260 nM
Second compound 0.316 µM
  IC50: 6010 nM
Second compound 1 µM
  IC50: > 10000 nM
Second compound 3.16 µM
  IC50: 5470 nM
Second compound 10 µM
  IC50: 3780 nM
[3]
  viability, T/C: 86.5%
[4]
  viability, T/C: 81.5%
[25]
  viability, T/C: 77.9%
[26]
  viability, T/C: 92.3%
Second compound 0.0316 µM, first compound 3.16 µM
  viability, T/C: 55.3%
Second compound 0.0316 µM, first compound 10 µM
  viability, T/C: 49.3%
[7]
  viability, T/C: 83.2%
[8]
  viability, T/C: 103%
[27]
  viability, T/C: 100%
[28]
  viability, T/C: 68.9%
Second compound 0.1 µM, first compound 3.16 µM
  viability, T/C: 72.8%
Second compound 0.1 µM, first compound 10 µM
  viability, T/C: 45.5%
[11]
  viability, T/C: 82.1%
[12]
  viability, T/C: 84.1%
[29]
  viability, T/C: 92.7%
[30]
  viability, T/C: 71.8%
Second compound 0.316 µM, first compound 3.16 µM
  viability, T/C: 61.2%
Second compound 0.316 µM, first compound 10 µM
  viability, T/C: 42.1%
[15]
  viability, T/C: 86.1%
[16]
  viability, T/C: 90.3%
[31]
  viability, T/C: 86.6%
[32]
  viability, T/C: 82.3%
Second compound 1 µM, first compound 3.16 µM
  viability, T/C: 56.9%
Second compound 1 µM, first compound 10 µM
  viability, T/C: 50.2%
[19]
  viability, T/C: 77.9%
[20]
  viability, T/C: 79.7%
[33]
  viability, T/C: 84.4%
[34]
  viability, T/C: 75.9%
Second compound 3.16 µM, first compound 3.16 µM
  viability, T/C: 54.2%
Second compound 3.16 µM, first compound 10 µM
  viability, T/C: 45.5%
[23]
  viability, T/C: 84.1%
[24]
  viability, T/C: 83.1%
[35]
  viability, T/C: 79%
[36]
  viability, T/C: 74%
Second compound 10 µM, first compound 3.16 µM
  viability, T/C: 50.6%
Second compound 10 µM, first compound 10 µM
  viability, T/C: 44.8%
